Reference: PubChem BioAssay AID328 (DTP/NCI, 2004)
Where “and” joins values, the source holds several entries; their conditions need not be identical. Identical values can stand only once. Inconclusive results and toxic doses are left out.

Test system: BDF1 mice, P388 leukemia ip, median survival T/C
Assay: NCI In Vivo Anticancer Drug Screen. Data for tumor model P388 Leukemia (intraperitoneal) in B6D2F1 (BDF1) mice
Conditions: endpoint: median survival time, higher = longer survival
Summary of the method: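 In tumour-bearing mice, survival after compound treatment is set against the vehicle group and given as a quotient.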

[1] = dose: 25.0 mg/kg/injection, schedule: Q04DX003 (ip), vehicle: saline
[2] = dose: 50.0 mg/kg/injection, schedule: Q04DX003 (ip), vehicle: saline
[3] = dose: 100.0 mg/kg/injection, schedule: Q04DX003 (ip), vehicle: saline
[4] = dose: 100.0 mg/kg/injection, schedule: Q04DX003 (ip), vehicle: other
[5] = dose: 25.0 mg/kg/injection, schedule: Q04DX003 (ip), vehicle: Klucel (hydroxypropylcellulose) (HPC)
[6] = dose: 50.0 mg/kg/injection, schedule: Q01DX009 (ip), vehicle: Klucel (hydroxypropylcellulose) (HPC)
[7] = dose: 100.0 mg/kg/injection, schedule: Q01DX009 (ip), vehicle: Klucel (hydroxypropylcellulose) (HPC)
[8] = dose: 100.0 mg/kg/injection, schedule: Q04DX003 (ip), vehicle: Klucel (hydroxypropylcellulose) (HPC)
[9] = dose: 50.0 mg/kg/injection, schedule: Q01DX009 (ip), vehicle: saline with Tween-80
[10] = dose: 50.0 mg/kg/injection, schedule: Q04DX003 (ip), vehicle: saline with Tween-80
[11] = dose: 100.0 mg/kg/injection, schedule: Q04DX003 (ip), vehicle: saline with Tween-80
[12] = dose: 100.0 mg/kg/injection, schedule: Q01DX009 (ip), vehicle: saline with Tween-80
[13] = dose: 200.0 mg/kg/injection, schedule: Q01DX009 (ip), vehicle: saline with Tween-80
[14] = dose: 25.0 mg/kg/injection, schedule: Q04DX003 (ip), vehicle: saline with Tween-80

## CC(=O)OC1C2(CC3N4C(=O)C5(CO)SSC4(CC31O)C(=O)N5C)OC(C)C(C)(C)C2=O (stereo not drawn)
dose: 3.13 mg/kg/injection, schedule: Q01DX009 (oral), vehicle: saline
  T/C: 95 % of control
dose: 6.25 mg/kg/injection, schedule: Q01DX009 (oral), vehicle: saline
  T/C: 100 % of control
dose: 12.5 mg/kg/injection, schedule: Q01DX009 (oral), vehicle: saline
  T/C: 103 % of control

## OCCCC1CCCCN1 (stereo not drawn)
[1]
  T/C: 115 % of control
[2]
  T/C: 100 % of control
[3]
  T/C: 105 % of control

## CC(C)C1(C(=O)NNC(=O)CCCc2ccc(N(CCCl)CCCl)cc2)OC2(O)CCCCCN2C1=O (stereo not drawn)
dose: 50.0 mg/kg/injection, schedule: Q04DX003 (ip), vehicle: other
  T/C: 175 % of control
[4]
  T/C: 220 % of control

## CC(=N/O)/C(C)=N\O
dose: 6.25 mg/kg/injection, schedule: Q01DX009 (ip), vehicle: Klucel (hydroxypropylcellulose) (HPC)
  T/C: 110 % of control
dose: 25.0 mg/kg/injection, schedule: Q01DX009 (ip), vehicle: Klucel (hydroxypropylcellulose) (HPC)
  T/C: 95 % of control
[5]
  T/C: 95 % of control
[6]
  T/C: 110 % of control and 120 % of control
dose: 75.0 mg/kg/injection, schedule: Q01DX009 (ip), vehicle: Klucel (hydroxypropylcellulose) (HPC)
  T/C: 100 % of control
[7]
  T/C: 120 % of control
[8]
  T/C: 95 % of control
[4]
  T/C: 100 % of control

## NC(CSC(c1ccccc1)(c1ccccc1)c1ccc(Cl)cc1)C(=O)O (stereo not drawn)
dose: 33.0 mg/kg/injection, schedule: Q04DX003 (ip), vehicle: saline with Tween-80
  T/C: 190 % of control
[9]
  T/C: 272 % of control
[10]
  T/C: 190 % of control
dose: 75.0 mg/kg/injection, schedule: Q04DX003 (ip), vehicle: saline with Tween-80
  T/C: 272 % of control

## CCOC(=O)Nc1ccc2c(c1)/C(=N\NC(N)=S)c1ccccc1-2
dose: 0.37 mg/kg/injection, schedule: Q01DX009 (ip), vehicle: gum acacia
  T/C: 120 % of control
dose: 0.75 mg/kg/injection, schedule: Q01DX009 (ip), vehicle: gum acacia
  T/C: 108 % of control
dose: 1.5 mg/kg/injection, schedule: Q01DX009 (ip), vehicle: gum acacia
  T/C: 96 % of control and 108 % of control
dose: 3.0 mg/kg/injection, schedule: Q04DX003 (ip), vehicle: gum acacia
  T/C: 92 % of control
dose: 6.0 mg/kg/injection, schedule: Q04DX003 (ip), vehicle: gum acacia
  T/C: 100 % of control
[6]
  T/C: 86 % of control
[7]
  T/C: 90 % of control
[8]
  T/C: 86 % of control
dose: 200.0 mg/kg/injection, schedule: Q01DX001 (ip), vehicle: Klucel (hydroxypropylcellulose) (HPC)
  T/C: 86 % of control
dose: 200.0 mg/kg/injection, schedule: Q01DX009 (ip), vehicle: Klucel (hydroxypropylcellulose) (HPC)
  T/C: 100 % of control
dose: 200.0 mg/kg/injection, schedule: Q04DX003 (ip), vehicle: Klucel (hydroxypropylcellulose) (HPC)
  T/C: 100 % of control
dose: 400.0 mg/kg/injection, schedule: Q04DX003 (ip), vehicle: Klucel (hydroxypropylcellulose) (HPC)
  T/C: 109 % of control
dose: 400.0 mg/kg/injection, schedule: Q04DX003 (ip), vehicle: gum acacia
  T/C: 100 % of control

## CC[N+](CC)(CC)CCC[N+](CC)(CC)CC
dose: 50.0 mg/kg/injection, schedule: Q01DX009 (ip), vehicle: water
  T/C: 89 % of control
dose: 100.0 mg/kg/injection, schedule: Q04DX003 (ip), vehicle: water
  T/C: 109 % of control
dose: 200.0 mg/kg/injection, schedule: Q04DX003 (ip), vehicle: water
  T/C: 90 % of control

## CC(C)=NNS(=O)(=O)c1ccccc1
[10]
  T/C: 95 % of control
[11]
  T/C: 90 % of control
dose: 200.0 mg/kg/injection, schedule: Q04DX003 (ip), vehicle: saline with Tween-80
  T/C: 95 % of control

## c1ccc2c(c1)OP(OP1Oc3ccccc3O1)O2
dose: 25.0 mg/kg/injection, schedule: Q01DX009 (ip), vehicle: saline
  T/C: 95 % of control
dose: 50.0 mg/kg/injection, schedule: Q01DX009 (ip), vehicle: saline
  T/C: 113 % of control
dose: 150.0 mg/kg/injection, schedule: Q04DX003 (ip), vehicle: saline
  T/C: 113 % of control

## Clc1ccc(-c2noc(CN3CCCCC3)n2)cc1
[9]
  T/C: 88 % of control
[12]
  T/C: 88 % of control

## CN(C)C=C1C(=O)N(C)C(=O)N(C)C1=O
dose: 100.0 mg/kg/injection, schedule: Q04DX002 (ip), vehicle: saline
  T/C: 101 % of control
dose: 200.0 mg/kg/injection, schedule: Q04DX002 (ip), vehicle: saline
  T/C: 108 % of control
dose: 400.0 mg/kg/injection, schedule: Q04DX002 (ip), vehicle: saline
  T/C: 112 % of control

## OCC1CC[N-]CC1.OCC1CC[N-]CC1.[Cl][Pt+2]([Cl])([Cl])[Cl]
[1]
  T/C: 104 % of control
[2]
  T/C: 101 % of control
[3]
  T/C: 118 % of control

## COC(=O)CCC(=O)Nc1ccc(C(=O)CBr)cc1
[5]
  T/C: 107 % of control
dose: 50.0 mg/kg/injection, schedule: Q04DX003 (ip), vehicle: Klucel (hydroxypropylcellulose) (HPC)
  T/C: 97 % of control

## COC(=O)/C=C\SC(=S)C1CCCC1=O (stereo not drawn)
[9]
  T/C: 119 % of control
[12]
  T/C: 110 % of control
[13]
  T/C: 112 % of control

## c1ccc(COC2CN3CCC2CC3)cc1 (stereo not drawn)
[14]
  T/C: 122 % of control
[10]
  T/C: 100 % of control

## COC1CCCCC1Br (stereo not drawn)
dose: 100.0 mg/kg/injection, schedule: Q01DX009 (ip), vehicle: saline
  T/C: 113 % of control
dose: 200.0 mg/kg/injection, schedule: Q01DX009 (ip), vehicle: saline
  T/C: 109 % of control
dose: 400.0 mg/kg/injection, schedule: Q01DX009 (ip), vehicle: saline
  T/C: 104 % of control

## IP(c1ccccc1)(c1ccccc1)(c1ccccc1)N1C2CCCCC21 (stereo not drawn)
dose: 0.07 mg/kg/injection, schedule: Q01DX009 (ip), vehicle: saline
  T/C: 104 % of control and 113 % of control
dose: 0.15 mg/kg/injection, schedule: Q01DX009 (ip), vehicle: saline
  T/C: 150 % of control and 156 % of control
dose: 0.23 mg/kg/injection, schedule: Q04DX003 (ip), vehicle: saline
  T/C: 109 % of control
dose: 0.31 mg/kg/injection, schedule: Q01DX009 (ip), vehicle: saline
  T/C: 150 % of control
dose: 0.46 mg/kg/injection, schedule: Q04DX003 (ip), vehicle: saline
  T/C: 118 % of control
dose: 0.6 mg/kg/injection, schedule: Q01DX009 (ip), vehicle: saline
  T/C: 166 % of control
dose: 0.62 mg/kg/injection, schedule: Q04DX003 (ip), vehicle: saline
  T/C: 113 % of control
dose: 0.93 mg/kg/injection, schedule: Q04DX003 (ip), vehicle: saline
  T/C: 118 % of control
dose: 1.2 mg/kg/injection, schedule: Q01DX009 (ip), vehicle: saline
  T/C: 156 % of control

## Cn1nc(N)c2ncc(C(Cl)(Cl)Cl)nc21
dose: 25.0 mg/kg/injection, schedule: Q01DX009 (ip), vehicle: saline with Tween-80
  T/C: 91 % of control
[10]
  T/C: 105 % of control
[11]
  T/C: 90 % of control

## COc1ccc(Br)cc1/C=N/N=C/c1cc(Br)ccc1OC
[12]
  T/C: 95 % of control
[13]
  T/C: 95 % of control
dose: 400.0 mg/kg/injection, schedule: Q01DX009 (ip), vehicle: saline with Tween-80
  T/C: 95 % of control

## CN(C)CCCN1c2ccccc2Sc2ccc(Cl)cc21
dose: 6.25 mg/kg/injection, schedule: Q01DX009 (ip), vehicle: saline
  T/C: 109 % of control
dose: 12.5 mg/kg/injection, schedule: Q01DX009 (ip), vehicle: saline
  T/C: 109 % of control
dose: 12.5 mg/kg/injection, schedule: Q04DX003 (ip), vehicle: saline with Tween-80
  T/C: 104 % of control
dose: 12.5 mg/kg/injection, schedule: Q04DX003 (ip), vehicle: saline
  T/C: 106 % of control
[14]
  T/C: 108 % of control
[1]
  T/C: 89 % of control
[2]
  T/C: 112 % of control

## CCN(CC)CCOC(=O)c1ccc(NC(=O)Nc2ccc(C(=O)OCCN(CC)CC)cc2)cc1
[12]
  T/C: 119 % of control
